In brackets after ≈: the same amount, converted by molar mass.
Key:
Acinetobacter baumannii [1] = assay: Antibacterial activity against multidrug-resistant Acinetobacter baumannii BM-2023-D2-010 infected in ICR mouse assessed as inhibition of bacterial growth by measuring its effective dose at iv after 1 and 5 hour of post-infection measured after 7 days; format: functional; conditions: BM-2023-D2-010, 168 h, time 7 day
[2] = target: Voltage-gated inwardly rectifying potassium channel KCNH2 (Homo sapiens, UniProt Q12809); assay: Inhibition of hERG by whole cell Qpatch assay; format: toxicity
Pseudomonas aeruginosa [3] = assay: Antibacterial activity against IMP-4 producing multidrug-resistant Pseudomonas aeruginosa clinical isolate 17-13 assessed as inhibition of bacterial growth incubated for 18 to 20 hrs by two fold serial dilution assay; format: functional; conditions: time 18-20 hrs
Escherichia coli [4] = assay: Antibacterial activity against Escherichia coli NCTC-13353 assessed as inhibition of bacterial growth incubated for 18 to 20 hrs in presence of CAMHB medium by two fold serial dilution assay; format: functional; conditions: time 18-20 hrs
Escherichia coli [5] = assay: Antibacterial activity against ESBL-producing multidrug-resistant Escherichia coli clinical isolate 14-1 assessed as inhibition of bacterial growth incubated for 18 to 20 hrs by two fold serial dilution assay; format: functional; conditions: time 18-20 hrs
Escherichia coli [6] = assay: Antibacterial activity against ESBL-producing multidrug-resistant Escherichia coli clinical isolate 14-2 assessed as inhibition of bacterial growth incubated for 18 to 20 hrs by two fold serial dilution assay; format: functional; conditions: time 18-20 hrs
Acinetobacter baumannii [7] = assay: Antibacterial activity against OXA-23 producing multidrug-resistant Acinetobacter baumannii clinical isolate 17-7 assessed as inhibition of bacterial growth incubated for 18 to 20 hrs by two fold serial dilution assay; format: functional; conditions: time 18-20 hrs
Escherichia coli [8] = assay: Antibacterial activity against Escherichia coli NCTC-13353 assessed as inhibition of bacterial growth incubated for 18 to 20 hrs in presence of iron-depleted CAMHB medium by two fold serial dilution assay; format: functional; conditions: time 18-20 hrs
Pseudomonas aeruginosa [9] = assay: Antibacterial activity against IMP-4 producing multidrug-resistant Pseudomonas aeruginosa clinical isolate 19-1 assessed as inhibition of bacterial growth incubated for 18 to 20 hrs by two fold serial dilution assay; format: functional; conditions: time 18-20 hrs
Escherichia coli [10] = assay: Antibacterial activity against Escherichia coli ATCC-35218 assessed as inhibition of bacterial growth incubated for 18 to 20 hrs in presence of CAMHB medium by two fold serial dilution assay; format: functional; conditions: time 18-20 hrs
Acinetobacter baumannii [11] = assay: Antibacterial activity against OXA-23 producing multidrug-resistant Acinetobacter baumannii clinical isolate 17-6 assessed as inhibition of bacterial growth incubated for 18 to 20 hrs by two fold serial dilution assay; format: functional; conditions: time 18-20 hrs
Klebsiella pneumoniae [12] = assay: Antibacterial activity against KPC-2 producing multidrug-resistant Klebsiella pneumoniae clinical isolate 15-3 assessed as inhibition of bacterial growth incubated for 18 to 20 hrs by two fold serial dilution assay; format: functional; conditions: time 18-20 hrs
Acinetobacter baumannii [13] = assay: Antibacterial activity against OXA-23 producing multidrug-resistant Acinetobacter baumannii clinical isolate 17-2 assessed as inhibition of bacterial growth incubated for 18 to 20 hrs by two fold serial dilution assay; format: functional; conditions: time 18-20 hrs
Acinetobacter baumannii [14] = assay: Antibacterial activity against OXA-23 producing multidrug-resistant Acinetobacter baumannii clinical isolate 17-3 assessed as inhibition of bacterial growth incubated for 18 to 20 hrs by two fold serial dilution assay; format: functional; conditions: time 18-20 hrs
Escherichia coli [15] = assay: Antibacterial activity against Escherichia coli ATCC-35218 assessed as inhibition of bacterial growth incubated for 18 to 20 hrs in presence of iron-depleted CAMHB medium by two fold serial dilution assay; format: functional; conditions: time 18-20 hrs
Acinetobacter baumannii [16] = assay: Antibacterial activity against OXA-23 producing multidrug-resistant Acinetobacter baumannii clinical isolate 17-8 assessed as inhibition of bacterial growth incubated for 18 to 20 hrs by two fold serial dilution assay; format: functional; conditions: time 18-20 hrs
Klebsiella pneumoniae [17] = assay: Antibacterial activity against KPC-2 producing multidrug-resistant Klebsiella pneumoniae clinical isolate 15-2 assessed as inhibition of bacterial growth incubated for 18 to 20 hrs by two fold serial dilution assay; format: functional; conditions: time 18-20 hrs
Pseudomonas aeruginosa [18] = assay: Antibacterial activity against IMP-4 producing multidrug-resistant Pseudomonas aeruginosa clinical isolate 17-1 assessed as inhibition of bacterial growth incubated for 18 to 20 hrs by two fold serial dilution assay; format: functional; conditions: time 18-20 hrs
hERG (KCNH2) = hERG (KCNH2) (Homo sapiens, UniProt Q12809); assay: Inhibition of hERG at 40 uM by whole cell Qpatch assay relative to control; format: toxicity
Escherichia coli [19] = assay: Antibacterial activity against ESBL-producing multidrug-resistant Escherichia coli clinical isolate 14-4 assessed as inhibition of bacterial growth incubated for 18 to 20 hrs by two fold serial dilution assay; format: functional; conditions: time 18-20 hrs
Pseudomonas aeruginosa [20] = assay: Antibacterial activity against IMP-4 producing multidrug-resistant Pseudomonas aeruginosa clinical isolate 19-17 assessed as inhibition of bacterial growth incubated for 18 to 20 hrs by two fold serial dilution assay; format: functional; conditions: time 18-20 hrs
Klebsiella pneumoniae [21] = assay: Antibacterial activity against Klebsiella pneumoniae ATCC BAA-1898 assessed as inhibition of bacterial growth incubated for 18 to 20 hrs in presence of iron-depleted CAMHB medium by two fold serial dilution assay; format: functional; conditions: time 18-20 hrs
Acinetobacter baumannii [22] = assay: Antibacterial activity against OXA-23 producing multidrug-resistant Acinetobacter baumannii clinical isolate 17-5 assessed as inhibition of bacterial growth incubated for 18 to 20 hrs by two fold serial dilution assay; format: functional; conditions: time 18-20 hrs
Klebsiella pneumoniae [23] = assay: Antibacterial activity against KPC-2 producing multidrug-resistant Klebsiella pneumoniae clinical isolate 15-5 assessed as inhibition of bacterial growth incubated for 18 to 20 hrs by two fold serial dilution assay; format: functional; conditions: time 18-20 hrs
[24] = Plasma protein binding in mouse incubated for 35 mins by LC-MS/MS analysis; format: ADME, cell-free; conditions: read-out: PPB (converted)
Klebsiella pneumoniae [25] = assay: Antibacterial activity against Klebsiella pneumoniae ATCC BAA-1898 assessed as inhibition of bacterial growth incubated for 18 to 20 hrs in presence of CAMHB medium by two fold serial dilution assay; format: functional; conditions: time 18-20 hrs
Escherichia coli [26] = assay: Antibacterial activity against Escherichia coli ATCC35218 assessed as inhibition of bacterial growth incubated for 18 to 20 hrs by two fold serial dilution assay; format: functional; conditions: time 18-20 hrs
Pseudomonas aeruginosa [27] = assay: Antibacterial activity against IMP-4 producing multidrug-resistant Pseudomonas aeruginosa clinical isolate 19-5 assessed as inhibition of bacterial growth incubated for 18 to 20 hrs by two fold serial dilution assay; format: functional; conditions: time 18-20 hrs
Escherichia coli [28] = assay: Antibacterial activity against Escherichia coli ATCC-35218 infected in ICR mouse assessed as inhibition of bacterial growth at iv after 1 and 5 hour of post-infection measured after 7 days; format: functional; conditions: ATCC-35218, 168 h, time 7 day
Acinetobacter baumannii [29] = assay: Antibacterial activity against multidrug-resistant Acinetobacter baumannii BM-2023-D2-010 infected in ICR mouse assessed as inhibition of bacterial growth at iv after 1 and 5 hour of post-infection measured after 7 days; format: functional; conditions: BM-2023-D2-010, 168 h, time 7 day
Klebsiella pneumoniae [30] = assay: Antibacterial activity against KPC-2 producing multidrug-resistant Klebsiella pneumoniae clinical isolate 15-1 assessed as inhibition of bacterial growth incubated for 18 to 20 hrs by two fold serial dilution assay; format: functional; conditions: time 18-20 hrs
Pseudomonas aeruginosa [31] = assay: Antibacterial activity against Pseudomonas aeruginosa ATCC 27853 assessed as inhibition of bacterial growth incubated for 18 to 20 hrs by two fold serial dilution assay; format: functional; conditions: time 18-20 hrs
Acinetobacter baumannii [32] = assay: Antibacterial activity against OXA-23 producing multidrug-resistant Acinetobacter baumannii clinical isolate 15-4 assessed as inhibition of bacterial growth incubated for 18 to 20 hrs by two fold serial dilution assay; format: functional; conditions: time 18-20 hrs
Acinetobacter baumannii [33] = assay: Antibacterial activity against OXA-23 producing multidrug-resistant Acinetobacter baumannii clinical isolate 15-2 assessed as inhibition of bacterial growth incubated for 18 to 20 hrs by two fold serial dilution assay; format: functional; conditions: time 18-20 hrs
Pseudomonas aeruginosa [34] = assay: Antibacterial activity against IMP-4 producing multidrug-resistant Pseudomonas aeruginosa clinical isolate 15-4 assessed as inhibition of bacterial growth incubated for 18 to 20 hrs by two fold serial dilution assay; format: functional; conditions: time 18-20 hrs
Acinetobacter baumannii [35] = assay: Antibacterial activity against OXA-23 producing multidrug-resistant Acinetobacter baumannii clinical isolate 15-1 assessed as inhibition of bacterial growth incubated for 18 to 20 hrs by two fold serial dilution assay; format: functional; conditions: time 18-20 hrs
Pseudomonas aeruginosa [36] = assay: Antibacterial activity against IMP-4 producing multidrug-resistant Pseudomonas aeruginosa clinical isolate 15-1 assessed as inhibition of bacterial growth incubated for 18 to 20 hrs by two fold serial dilution assay; format: functional; conditions: time 18-20 hrs
Pseudomonas aeruginosa [37] = assay: Antibacterial activity against IMP-4 producing multidrug-resistant Pseudomonas aeruginosa clinical isolate 15-5 assessed as inhibition of bacterial growth incubated for 18 to 20 hrs by two fold serial dilution assay; format: functional; conditions: time 18-20 hrs
Acinetobacter baumannii [38] = assay: Antibacterial activity against OXA-23 producing multidrug-resistant Acinetobacter baumannii clinical isolate 15-3 assessed as inhibition of bacterial growth incubated for 18 to 20 hrs by two fold serial dilution assay; format: functional; conditions: time 18-20 hrs
Acinetobacter baumannii [39] = assay: Antibacterial activity against OXA-23 producing multidrug-resistant Acinetobacter baumannii clinical isolate 15-5 assessed as inhibition of bacterial growth incubated for 18 to 20 hrs by two fold serial dilution assay; format: functional; conditions: time 18-20 hrs

Chain of Voltage-gated inwardly rectifying potassium channel KCNH2 (Q12809 whole entry): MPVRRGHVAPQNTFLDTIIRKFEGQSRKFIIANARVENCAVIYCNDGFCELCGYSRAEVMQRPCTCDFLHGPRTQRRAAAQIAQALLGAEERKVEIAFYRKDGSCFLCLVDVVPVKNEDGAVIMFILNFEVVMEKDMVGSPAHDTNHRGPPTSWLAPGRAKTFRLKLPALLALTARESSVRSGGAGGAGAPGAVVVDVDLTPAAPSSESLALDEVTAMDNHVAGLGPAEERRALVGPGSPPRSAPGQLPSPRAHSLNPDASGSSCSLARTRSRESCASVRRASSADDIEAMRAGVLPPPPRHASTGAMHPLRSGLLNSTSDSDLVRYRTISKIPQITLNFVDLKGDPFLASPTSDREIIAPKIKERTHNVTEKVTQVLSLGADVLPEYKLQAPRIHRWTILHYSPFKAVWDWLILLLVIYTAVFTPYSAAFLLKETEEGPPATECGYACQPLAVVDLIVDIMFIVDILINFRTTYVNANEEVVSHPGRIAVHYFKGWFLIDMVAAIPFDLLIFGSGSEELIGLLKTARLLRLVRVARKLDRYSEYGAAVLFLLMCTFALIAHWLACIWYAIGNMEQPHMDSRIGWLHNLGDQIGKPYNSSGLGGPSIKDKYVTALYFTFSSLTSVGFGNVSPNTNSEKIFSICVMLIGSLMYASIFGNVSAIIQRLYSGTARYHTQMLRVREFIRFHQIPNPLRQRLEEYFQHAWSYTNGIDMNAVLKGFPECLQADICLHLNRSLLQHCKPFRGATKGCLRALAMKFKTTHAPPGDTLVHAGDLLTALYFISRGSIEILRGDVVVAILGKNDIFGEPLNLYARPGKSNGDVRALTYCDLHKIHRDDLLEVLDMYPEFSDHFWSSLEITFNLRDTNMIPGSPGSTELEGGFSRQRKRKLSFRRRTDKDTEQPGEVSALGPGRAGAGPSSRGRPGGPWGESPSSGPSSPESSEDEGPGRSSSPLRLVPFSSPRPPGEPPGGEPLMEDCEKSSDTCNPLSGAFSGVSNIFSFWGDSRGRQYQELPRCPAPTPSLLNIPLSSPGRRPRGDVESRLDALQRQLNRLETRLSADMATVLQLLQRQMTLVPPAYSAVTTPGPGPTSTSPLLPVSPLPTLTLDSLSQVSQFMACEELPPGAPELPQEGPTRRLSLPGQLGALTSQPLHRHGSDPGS
Chain of hERG (KCNH2) (Q12809 whole entry): as above

Structure (SMILES) | ED50 (Acinetobacter baumannii [1]) [mg/kg] | IC50 [2] [nM] | MIC (Pseudomonas aeruginosa [3]) [µg/mL] | MIC (Escherichia coli [4]) [µg/mL] | MIC (Escherichia coli [5]) [µg/mL] | MIC (Escherichia coli [6]) [µg/mL] | MIC (Acinetobacter baumannii [7]) [µg/mL] | MIC (Escherichia coli [8]) [µg/mL] | MIC (Pseudomonas aeruginosa [9]) [µg/mL] | MIC (Escherichia coli [10]) [µg/mL] | MIC (Acinetobacter baumannii [11]) [µg/mL] | MIC (Klebsiella pneumoniae [12]) [µg/mL] | MIC (Acinetobacter baumannii [13]) [µg/mL] | MIC (Acinetobacter baumannii [14]) [µg/mL] | MIC (Escherichia coli [15]) [µg/mL] | MIC (Acinetobacter baumannii [16]) [µg/mL] | MIC (Klebsiella pneumoniae [17]) [µg/mL] | MIC (Pseudomonas aeruginosa [18]) [µg/mL] | MIC (Escherichia coli [19]) [µg/mL] | MIC (Pseudomonas aeruginosa [20]) [µg/mL] | also measured
Nc1nc(/C(=N/O[C@@H](C(=O)O)C2CCC(F)(F)CC2)C(=O)N[C@@H]2C(=O)N3C(C(=O)O)=C(CSCCNC(=O)c4ccc(O)c(O)c4Cl)CS[C@H]23)cs1.O=C(O)C(F)(F)F | 7.3 | > 40000 | ≤ 0.03 | 1 | 0.25 | 0.5 | 0.5 | 0.25 | 2 | 1 | 1 | 1 | 0.5 | 0.25 | ≤ 0.03 | 0.5 | 0.25 | 8 | 0.125 | 0.25 | inhibition at 40 µM (hERG (KCNH2)): 6.67%; MIC (Klebsiella pneumoniae [21]): 2 µg/mL; MIC (Acinetobacter baumannii [22]): 0.25 µg/mL; MIC (Klebsiella pneumoniae [23]): 0.5 µg/mL; fraction unbound at 35 min [24]: 0.105; MIC (Klebsiella pneumoniae [25]): 4 µg/mL; MIC (Escherichia coli [26]): 0.25 µg/mL; MIC (Pseudomonas aeruginosa [27]): 1 µg/mL; MIC (Escherichia coli [28]): 0.06 µg/mL; MIC (Acinetobacter baumannii [29]): 0.5 µg/mL; MIC (Klebsiella pneumoniae [30]): 0.25 µg/mL
CC(C)(O/N=C(\C(=O)N[C@@H]1C(=O)N2C(C(=O)[O-])=C(C[N+]3(CCNC(=O)c4ccc(O)c(O)c4Cl)CCCC3)CS[C@H]12)c1csc(N)n1)C(=O)O [CEFIDEROCOL] | 7 | 42 | 1 (≈ 1.33 µM) | 0.5 | 0.125 (≈ 0.166 µM) | 1 (≈ 1.33 µM) | 2 (≈ 2.66 µM) | 0.5 | 2 (≈ 2.66 µM) | 1 | 1 (≈ 1.33 µM) | 8 (≈ 10.6 µM) | 1 (≈ 1.33 µM) | 1 (≈ 1.33 µM) | 0.06 | 1 (≈ 1.33 µM) | 4 (≈ 5.32 µM) | 8 (≈ 10.6 µM) | 2 (≈ 2.66 µM) | 0.5 (≈ 0.665 µM) | MIC (Pseudomonas aeruginosa [31]): 2 µg/mL (≈ 2.66 µM); MIC (Acinetobacter baumannii [32]): 4 µg/mL (≈ 5.32 µM); MIC (Acinetobacter baumannii [33]): 2 µg/mL (≈ 2.66 µM); MIC (Pseudomonas aeruginosa [34]): 2 µg/mL (≈ 2.66 µM); MIC (Acinetobacter baumannii [35]): 8 µg/mL (≈ 10.6 µM); MIC (Pseudomonas aeruginosa [36]): 4 µg/mL (≈ 5.32 µM); MIC (Pseudomonas aeruginosa [37]): 2 µg/mL (≈ 2.66 µM); MIC (Klebsiella pneumoniae [21]): 2 µg/mL; MIC (Acinetobacter baumannii [22]): 2 µg/mL (≈ 2.66 µM); MIC (Klebsiella pneumoniae [23]): 8 µg/mL (≈ 10.6 µM); fraction unbound at 35 min [24]: 0.801; MIC (Klebsiella pneumoniae [25]): 8 µg/mL; MIC (Escherichia coli [26]): 0.06 µg/mL (≈ 0.0798 µM); MIC (Pseudomonas aeruginosa [27]): 1 µg/mL (≈ 1.33 µM); MIC (Escherichia coli [28]): 0.12 µg/mL (≈ 0.16 µM); MIC (Acinetobacter baumannii [29]): 0.25 µg/mL (≈ 0.332 µM); MIC (Klebsiella pneumoniae [30]): 8 µg/mL (≈ 10.6 µM); MIC (Acinetobacter baumannii [38]): 4 µg/mL (≈ 5.32 µM); MIC (Acinetobacter baumannii [39]): 2 µg/mL (≈ 2.66 µM)

Reference: ChEMBL document CHEMBL5543142, “Discovery of YFJ-36: Design, Synthesis, and Antibacterial Activities of Catechol-Conjugated β-Lactams against Gram-Negative Bacteria” (J Med Chem, 2024)
